{
  "source": "patent US4764464A",
  "about": "“Semisynthetic enzymes: apoproteins from heme proteins as hydrolases” (priority 1986, dated 1988)",
  "key": {"apomyoglobin": {"biological_target": "T1, apomyoglobin (Physeter macrocephalus, UniProt P02185)", "T1 construct": "purchased", "T1 sequence (P02185 whole entry)": "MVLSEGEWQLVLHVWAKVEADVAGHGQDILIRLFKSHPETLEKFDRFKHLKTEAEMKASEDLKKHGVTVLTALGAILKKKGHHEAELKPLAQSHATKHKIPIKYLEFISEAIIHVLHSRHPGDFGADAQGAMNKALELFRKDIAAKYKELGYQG", "assay": "Hydrolysis of p-nitrophenyl alkanoates catalysed by apomyoglobin (absorbance at 400 nm)", "format": "biochemical, sperm whale", "conditions": "for k2 /KM (catalytic constant) / k2 /Kun (enhancement over rate in the absence of apomyoglobin) / K2 / kobs: 25° C.; for k2 /KM (catalytic constant) / k2 /Kun (enhancement over rate in the absence of apomyoglobin) / K2: pH 8; for K2: Lineweaver Burk; for kobs: pH 8, 0.05 M TRIS", "procedure": "Preparation of Apomylglobin. The heme group was removed from sperm whale metmyoglobin by the acid acetone method of Rossi-Fanelli and coworkers, op. cit., from a commercially available sample which was not purified prior to use.\n(§1) Hydrolysis of p-Nitrophenyl Alkanoates. The experimental methods used in the hydrolysis of these esters is exemplified by the hydrolysis of p-nitrophenyl caproate. Kinetic runs were performed with the semisynthetic enzyme, apomyoglobin, in excess of the substrate. All hydrolyses were done in 99.9% aqueous media at 25° C. at pH 8 using 0.05 molar tris(hydroxymethyl)aminomethane(TRIS) as a buffer. Each sample cuvette containing varying concentrations of apomyoglobin (Eo) in 1 ml of 0.05M buffer was allowed to equilibrate at 25° C. in a thermostated cell holder of a spectrophotometer. To this was added 1 microliter of 1.13×10^-2 M p-nitrophenyl caproate in ethanol and the contents thereafter were mixed well. The increase in absorbance at 400 nm arising from the p-nitrophenolate ion was monitored as a function of time until hydrolysis was complete.\n(§2) In the absence of apomyoglobin the hydrolysis of a solution of 1.13×10^-5 M of the same ester under the same conditions proceeded with the rate constant of 2.7×10^-5 sec^-1. The enhancement achieved with the semisynthetic enzyme is therefore 1800.\nWhere the same type of experiment yielded a decrease in catalysis rate in those instances the deacylation may become rate limiting. Some results of ester hydrolysis catalyzed by apomyoglobin are summarized in Table 2, where k2 /kM is often referred to as the \"catalytic constant,\" and kun is the hydrolytic rate constant in the absence of apomyoglobin."}, "[1]": {"assay": "Denaturation (stability) of the apoprotein under reaction conditions", "format": "physicochemical, sperm whale", "procedure": "The reaction temperature also is dictated by stability of the semisynthetic enzyme. When apoprotein derived from, e.g., sperm whale myoglobin is used, it often is denatured substantially at a temperature in excess of about 40° C., and consequently its use is recommended at a temperature under about 40° C. However, it needs to be emphasized that even where the semisynthetic enzyme is denatured at a higher temperature it can be used so long as its denaturation is slower than hydrolysis, although no reuse may be possible.\nFinally, the pH at which the hydrolysis is performed also is dictated by the denaturation properties of the semisynthetic enzyme. For example, where the apoprotein is derived from sperm whale myoglobin a pH range between about 6.5 and about 9 is found to cause little if any denaturation."}, "[2]": {"system": "apomyoglobin (denatured, 8 molar urea)", "assay": "Hydrolysis of p-nitrophenyl acetate with apomyoglobin denatured in 8 molar urea", "format": "biochemical, sperm whale", "conditions": "after 150 seconds, apomyoglobin solution also 8 molar in urea", "procedure": "To ascertain that our remarkable catalytic rates result from the active site only of the empty heme pocket or cavity the following experiments were performed. In the first experiment reconstituted myoglobin was prepared from apomyoglobin and hemin, and the hydrolysis of p-nitrophenyl caproate was determined as previously described. […] This eliminates the possibility that periperal lysine and histidine residues catalyze hydrolysis. In the second experiment the rate of hydrolysis of a solution of p-nitrophenyl acetate in buffer containing apomyoglobin, prepared as described above, was compared with the rate of hydrolysis in a similar solution which was also 8 molar in urea to ensure denaturation of apomyoglobin. After 150 seconds the reaction was 98% complete in the first solution, but only 2% complete in the urea-containing solution."}, "[3]": {"assay": "Hydrolysis of the ester in the absence of apomyoglobin (spontaneous rate)", "format": "physicochemical", "conditions": "1.13×10^-5 M ester, 25° C., pH 8, 0.05 M TRIS", "procedure": "as §1, §2"}, "reconstituted myoglobin": {"system": "reconstituted myoglobin", "assay": "Hydrolysis of p-nitrophenyl caproate with reconstituted myoglobin (apomyoglobin and hemin)", "format": "biochemical, sperm whale", "conditions": "reconstituted myoglobin from apomyoglobin and hemin", "procedure": "as §1\nTo ascertain that our remarkable catalytic rates result from the active site only of the empty heme pocket or cavity the following experiments were performed. In the first experiment reconstituted myoglobin was prepared from apomyoglobin and hemin, and the hydrolysis of p-nitrophenyl caproate was determined as previously described. […] This eliminates the possibility that periperal lysine and histidine residues catalyze hydrolysis. […]"}},
  "data": [
    {"molecule": "CCCC(=O)Oc1ccc([N+](=O)[O-])cc1", "note": "[Butyrate]", "values": [
      {"measurement": "k2 /KM (catalytic constant)", "setting": "apomyoglobin", "value": 26.4, "unit": "M⁻¹ s⁻¹"},
      {"measurement": "k2 /Kun (enhancement over rate in the absence of apomyoglobin)", "setting": "apomyoglobin", "value": 127},
      {"measurement": "K2", "setting": "apomyoglobin", "value": 0.0038, "unit": "s⁻¹"}
    ]},
    {"molecule": "CCC(=O)Oc1ccc([N+](=O)[O-])cc1", "values": [
      {"measurement": "k2 /KM (catalytic constant)", "setting": "apomyoglobin", "value": 6.4, "unit": "M⁻¹ s⁻¹"},
      {"measurement": "k2 /Kun (enhancement over rate in the absence of apomyoglobin)", "setting": "apomyoglobin", "value": 42}
    ]},
    {"molecule": "CCCCCCCCCC(=O)Oc1ccc([N+](=O)[O-])cc1", "note": "[Caprate]", "values": [
      {"measurement": "k2 /KM (catalytic constant)", "setting": "apomyoglobin", "value": 49, "unit": "M⁻¹ s⁻¹"},
      {"measurement": "k2 /Kun (enhancement over rate in the absence of apomyoglobin)", "setting": "apomyoglobin", "value": 4600},
      {"measurement": "K2", "setting": "apomyoglobin", "value": 0.03, "unit": "s⁻¹"}
    ]},
    {"molecule": "apoprotein derived from, e.g., sperm whale myoglobin: sperm whale metmyoglobin from which the heme group was removed by the acid acetone method; semisynthetic esterase", "values": [
      {"measurement": "temperature above which substantially denatured", "setting": "[1]", "value": "> 40", "unit": "°C"}
    ]},
    {"molecule": "CC(=O)Oc1ccc([N+](=O)[O-])cc1", "note": "[Acetate, p-nitrophenyl acetate]", "values": [
      {"measurement": "rate of hydrolysis by 5×10^-5 M apomyoglobin versus apomyoglobin first reacted with 5×10^-5 M ester to 95% completion", "setting": "apomyoglobin; 1×10^-5 M ester", "value": "identical"},
      {"measurement": "k2 /KM (catalytic constant)", "setting": "apomyoglobin", "value": 13.5, "unit": "M⁻¹ s⁻¹"},
      {"measurement": "k2 /Kun (enhancement over rate in the absence of apomyoglobin)", "setting": "apomyoglobin", "value": 134},
      {"measurement": "K2", "setting": "apomyoglobin", "value": 0.0058, "unit": "s⁻¹"},
      {"measurement": "reaction completion", "setting": "apomyoglobin; after 150 seconds, buffer containing apomyoglobin", "value": 98, "unit": "%"},
      {"measurement": "Turnover (k3 versus k2)", "setting": "apomyoglobin; rate with fresh apomyoglobin compared with pre-reacted apomyoglobin", "value": "k3 is much greater than k2"},
      {"measurement": "reaction completion", "setting": "[2]", "value": 2, "unit": "%"}
    ]},
    {"molecule": "CCCCCC(=O)Oc1ccc([N+](=O)[O-])cc1", "note": "[Caproate, p-nitrophenyl caproate]", "values": [
      {"measurement": "k2 /KM (catalytic constant)", "setting": "apomyoglobin", "value": 67, "unit": "M⁻¹ s⁻¹"},
      {"measurement": "k2 /Kun (enhancement over rate in the absence of apomyoglobin)", "setting": "apomyoglobin", "value": 1800},
      {"measurement": "kobs", "setting": "apomyoglobin; Eo 2.11 (10^-5 M) apomyoglobin", "value": "1.08 10^-2 sec^-1"},
      {"measurement": "kobs", "setting": "apomyoglobin; Eo 4.23 (10^-5 M) apomyoglobin", "value": "1.84 10^-2 sec^-1"},
      {"measurement": "kobs", "setting": "apomyoglobin; Eo 6.35 (10^-5 M) apomyoglobin", "value": "2.21 10^-2 sec^-1"},
      {"measurement": "kobs", "setting": "apomyoglobin; Eo 8.46 (10^-5 M) apomyoglobin", "value": "2.63 10^-2 sec^-1"},
      {"measurement": "kobs", "setting": "apomyoglobin; Eo 10.6 (10^-5 M) apomyoglobin", "value": "2.83 10^-2 sec^-1"},
      {"measurement": "K2", "setting": "apomyoglobin", "value": 0.0493, "unit": "s⁻¹"},
      {"measurement": "K2", "setting": "apomyoglobin; listed as p-nitrophenyl caproate", "value": 0.0493, "unit": "s⁻¹"},
      {"measurement": "rate constant of hydrolysis in the absence of apomyoglobin", "setting": "[3]", "value": "2.7e-05", "unit": "s⁻¹"},
      {"measurement": "hydrolysis rate relative to the spontaneous (uncatalyzed) rate", "setting": "reconstituted myoglobin", "value": "not more than twice that of the spontaneous (uncatalyzed) rate"}
    ]}
  ]
}
